Common to all, as to assay type: cell-based
Assay [1] deals with T1, OAT2r (Rattus norvegicus, UniProt Q5RLM2).
T1 construct: expressed in transfected cells
T1 sequence (Q5RLM2 1-535): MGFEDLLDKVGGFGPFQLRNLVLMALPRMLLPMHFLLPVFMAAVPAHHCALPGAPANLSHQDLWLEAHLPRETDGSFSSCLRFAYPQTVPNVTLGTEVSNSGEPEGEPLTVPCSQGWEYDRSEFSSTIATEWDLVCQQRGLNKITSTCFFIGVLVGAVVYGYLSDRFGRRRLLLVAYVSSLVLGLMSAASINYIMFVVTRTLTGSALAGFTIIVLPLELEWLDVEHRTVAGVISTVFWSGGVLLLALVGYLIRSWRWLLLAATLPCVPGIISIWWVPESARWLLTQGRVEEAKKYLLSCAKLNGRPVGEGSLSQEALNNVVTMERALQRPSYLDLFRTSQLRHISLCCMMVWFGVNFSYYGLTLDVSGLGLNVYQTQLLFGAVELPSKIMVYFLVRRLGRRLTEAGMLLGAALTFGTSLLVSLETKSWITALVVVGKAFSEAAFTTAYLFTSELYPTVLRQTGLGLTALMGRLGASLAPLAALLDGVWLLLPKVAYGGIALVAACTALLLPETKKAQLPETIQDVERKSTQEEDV
The assay is described as follows: efflux of glutamate from OAT2r-expressing 293 cells (LC-MS/MS). The protocol:
To test this hypothesis, 293 cells with or without expression of OAT2r were incubated 10 min in uptake buffer; then, the glutamate content of a buffer sample was determined by LC-MS/MS.
For measurement of solute uptake, cells were grown in surface culture on 60 mm polystyrol dishes (Nunclon 150288, Nunc, Roskilde, Denmark) precoated with 0.1 g/l poly-L-ornithine in 0.15 M boric acid-NaOH, pH 8.4. Cells were used for uptake experiments at a confluence of at least 70%. Uptake was measured at 37° C. Uptake buffer contains 125 mmol/l NaCl, 25 mmol/l HEPES-NaOH pH 7.4, 5.6 mmol/l (+)glucose, 4.8 mmol/l KCl, 1.2 mmol/l KH2PO4, 1.2 mmol/l CaCl2, and 1.2 mmol/l MgSO4. In glutamate efflux experiments, uptake buffer without KH2PO4 was used to avoid MS interference. After preincubation for at least 20 minutes in 4 ml of uptake buffer, the buffer was replaced with 2 ml of substrate in uptake buffer. The total substrate concentration if not indicated otherwise was 0.1 μmol/l for radiotracer assays and 10 μmol/l for unlabeled compounds. Incubation was stopped after 1 min by rinsing the cells four times each with 4 ml ice-cold uptake buffer. Radioactivity was determined, after cell lysis with 0.1% v/v Triton X-100 in 5 mmol/l TRIS-HCl pH 7.4, by liquid scintillation counting. For LCelectrospray ionization-MS/MS analysis, cells were lysed with methanol and stored at −20° C.

For assay [2], the target named is T1, OAT2r. The assay is described as follows: trans-stimulation of efflux of 3H-orotic acid via OAT2r. To be noted: for trans-stimulation of efflux of 3H-orotic acid (in words): 1 mmol/l compound in uptake buffer, 1 min, preloaded cells.
Assay [3] has as its target T1, OAT2r. The assay is described as follows: time course of uptake into OAT2r-expressing 293 cells. The following applies: for clearance kin: 10 μmol/l unlabeled substrate, 37° C., OAT2r-expressing cells; for factor by which expression of OAT2r increased the clearance: kin on versus off.

Consider `N[C@@H](CCC(=O)O)C(=O)O` [glutamate], for which, in assay [1] (10 min in uptake buffer, without extracellular exchange substrate), the “release of glutamate upon expression of OAT2 (in words)” value is “markedly increased release”. Further, the “trans-stimulation of efflux of 3H-orotic acid (in words)” value in assay [2] is reported as “accelerated efflux”.

With `O=C(O)c1cc(=O)[nH]c(=O)[nH]1` [orotic acid], in assay [1] (1 mmol/l compound in uptake buffer, 10 min), the “effect on efflux of glutamate (in words)” value is reported as “strongly trans-stimulated efflux of glutamate”. The same molecule registered an intracellular plateau in assay [3] (10 μmol/l unlabeled orotic acid, after 60 min, LC-MS/MS) of 5.8 nmol/mg protein. In addition, the “intracellular concentration corresponding to plateau” value in assay [3] (calculated with an intracellular water space of 6.7 μl/mg protein) is 870 µmol/L. In addition, in assay [3] (time course), the clearance kin stood at 50.1±6.4 μl min-1 mg protein-1 and the “factor by which expression of OAT2r increased the clearance” value is 86. This molecule also showed a kout in assay [3] (time course, unlabeled orotic acid, expression on) of 0.09 ± 0.01 min⁻¹. In addition, the “trans-stimulation of efflux of 3H-orotic acid (in words)” value in assay [2] is reported as “markedly accelerated efflux”. The “cell content directly after washing” value in assay [2] (1 h, 37° C. preloading with 100 μmol/l 3H-orotic acid, OAT2r-expressing cells, n=4) is on record as 56±3 nmol/mg protein.

As to `C[n+]1cccc(C(=O)[O-])c1` [trigonelline], in assay [3] (time course), the clearance kin is listed as 5.1±1.4 μl min-1 mg protein-1 and the “factor by which expression of OAT2r increased the clearance” value was about 50.

The values are drawn from patent US20140090094A1, “MODULATORS OF SLC22A7” (BAYER INTELLECTUAL PROPERTY GmbH, priority 2011, published 2014).
